# Results: US10683272B2 (THE JOHNS HOPKINS UNIVERSITY, priority 2014, dated 2020)
# What was measured:
# [1] = system: PSMA+ PC-3 PIP and PSMA− PC-3 flu tumors; experiment: small animal PET-CT imaging; type: in vivo, NOD/SCID mice; details: PET-CT
# Procedure: Mice (n=3 for ^86Y-4 or ^86Y-6 and n=2 for ^86Y-5) were injected via the tail vein with 3.33-6.21 MBq (90-168 μCi) of radiotracer formulated in 100 μL of saline at pH ˜7. […] At different time points, anesthetized individual mice were placed in the prone position on the scanner gantry and secured with medical tape while the anesthesia flow rate was increased to 0.8 L/min. Images were reconstructed using the FORE/2D-OSEM method (two iterations, 16 subsets) and included correction for radioactive decay, scanner dead time, and scattered radiation. Partial volume correction (PVC) was not performed. After each PET scan, a CT scan was acquired for anatomic co-registration. To facilitate PET and CT image co-registration, a special animal bed was employed which fits both the PET and CT scanners. The animals were under anesthesia and immobilized when moving between scanners as well as during both scans. The reconstructed PET and CT images were then manually co-registered through rigid transformation, by aligning natural landmarks (such as the animal limbs and the bed contour) using the AMIDE software (from sourceforge.net/amide).
# Dynamic, whole-body PET and CT images were acquired on an eXplore VISTA small-animal PET (GE Healthcare, Little Chalfont, Buckinghamshire, UK) and an X-SPECT small SPECT/CT system (Gamma Medica Ideas, Northridge, Calif.), respectively.
# [2] = baboon PET imaging and pharmacokinetics; type: in vivo, Papio anubis (baboon)
# From the text: A male Papio anubis (8 y, 27.1 kg) was used to study the biodistribution of ^86Y-6. The baboon was positioned supine during image acquisition. For attenuation correction a low-dose CT image was acquired immediately before the first and last PET images. PET and CT images were co-registered across time points using a Hermes workstation (Hermes Medical Solutions, Greenville, S.C.). Fourteen source organ contours were delineated on the CT with the aid of fused PET/CT images. Decay-corrected mean activity concentrations (Bq/g) were extracted for each source organ from the PET images. Contours were drawn on the PET images of the kidneys, renal cortices, and prostate. The decay-corrected total activity per organ quantified within the PET images had nearly one-to-one correspondence with the administered radioactivity for the first six time points (1 h or less), which confirmed that the administered radioactivity was fully accounted for on the PET images, after which the total amount was less than the administered amount due to voiding. The total amount of radioactivity quantified in each of the PET images was used to obtain the whole-body retention kinetics.
# Nine static PET images were acquired at 5, 10, 15, 20, 35 min, 1, 2, 3.5 and 23 h after intravenous administration of 80.7 MBq (2.2 mCi) of ^86Y-6 as a bolus. Images were acquired in 2D mode on a Discovery Rx VCT scanner (GE Healthcare).
# For each time-point, the activity concentration (in Bq/cm^3) was measured in each of the 14 delineated organs and multiplied by the organ volume to obtain the total activity per time point per organ. The measured values were then decay-corrected and divided by the baboon organ mass, determined by the CT density and volume from the drawn contours, and the injected radioactivity to obtain the fraction of initial radioactivity per gram (FIA/g) for each time point and each organ. The baboon FIA/g values were then converted to human FIA (per organ) using the following equation (Schwartz et al., 2011; Woodard et al., 1975): […]
# That approach assumes that the concentration of activity in a particular tissue relative to the overall concentration in the whole body is preserved across species (i.e., organ concentration/total body concentration is the same for baboon and man). The resulting human FIA values were plotted as a function of time (nine data points) for each organ and fit to a bi-exponential expression: FIA(t)=A1.e^−(λ1^bio^.t)+A2.e^−(Δ2^bio^.t) (2)
# [3] = bi-exponential fit, listed as [^86Y]6
# [4] = whole-body retention kinetics fit
smiles,measurement,setting,value
O=C([O-])CN1CCN(CC(=O)[O-])CCN(CC(=O)[O-])C(Cc2ccc(NC(=S)NCCCCNC(=O)CCCCCCC(=O)NCCCC[C@H](NC(=O)N[C@@H](CCC(=O)O)C(=O)O)C(=O)O)cc2)CN(CC(=O)[O-])CC1.[86Y+3] (stereo partly shown) [^86Y-6],earliest time of clear delineation of PSMA+ PC-3 PIP tumor,[1],15 min
same,percent of kidney radioactivity cleared in the rapid phase,[2]; baboon,Sixty-eight
same,percent of renal cortex radioactivity cleared in the rapid phase,[2]; baboon,66%
same,highest uptake in kidneys,"[2]; baboon, about 25 min post-injection",8 % ID/g
same,"Brain, biological half-life of A1",[2]; bi-exponential fit,0.71 h
same,"Brain, biological half-life of A2",[2]; bi-exponential fit,8.71 h
same,"Brain, fitted parameter A1",[2]; bi-exponential fit,0.53 % ID
same,"Brain, fitted parameter A2",[2]; bi-exponential fit,0.11 % ID
same,"Heart, biological half-life of A1",[2]; bi-exponential fit,0.29 h
same,"Heart, biological half-life of A2",[2]; bi-exponential fit,6.49 h
same,"Heart, fitted parameter A1",[2]; bi-exponential fit,1.55 % ID
same,"Heart, fitted parameter A2",[2]; bi-exponential fit,0.29 % ID
same,"Kidneys, biological half-life of A1",[2]; bi-exponential fit,0.84 h
same,"Kidneys, biological half-life of A2",[2]; bi-exponential fit,16.6 h
same,"Kidneys, fitted parameter A1",[2]; bi-exponential fit,6.36 % ID
same,"Kidneys, fitted parameter A2",[2]; bi-exponential fit,2.98 % ID
same,"Large intestine, biological half-life of A1",[2]; bi-exponential fit,0.25 h
same,"Large intestine, biological half-life of A2",[2]; bi-exponential fit,5.97 h
same,"Large intestine, fitted parameter A1",[2]; bi-exponential fit,0.45 % ID
same,"Large intestine, fitted parameter A2",[2]; bi-exponential fit,0.30 % ID
same,"Liver, biological half-life of A1",[2]; bi-exponential fit,0.38 h
same,"Liver, biological half-life of A2",[2]; bi-exponential fit,7.71 h
same,"Liver, fitted parameter A1",[2]; bi-exponential fit,4.77 % ID
same,"Liver, fitted parameter A2",[2]; bi-exponential fit,1.52 % ID
same,"Lungs, biological half-life of A1",[2]; bi-exponential fit,0.42 h
same,"Lungs, biological half-life of A2",[2]; bi-exponential fit,6.29 h
same,"Lungs, fitted parameter A1",[2]; bi-exponential fit,2.78 % ID
same,"Lungs, fitted parameter A2",[2]; bi-exponential fit,1.27 % ID
same,"Muscle, biological half-life of A1",[2]; bi-exponential fit,1.98 h
same,"Muscle, biological half-life of A2",[2]; bi-exponential fit,69.31 h
same,"Muscle, fitted parameter A1",[2]; bi-exponential fit,14.98 % ID
same,"Muscle, fitted parameter A2",[2]; bi-exponential fit,0.56 % ID
same,"Pancreas, biological half-life of A1",[2]; bi-exponential fit,0.66 h
same,"Pancreas, biological half-life of A2",[2]; bi-exponential fit,10.60 h
same,"Pancreas, fitted parameter A1",[2]; bi-exponential fit,0.24 % ID
same,"Pancreas, fitted parameter A2",[2]; bi-exponential fit,0.05 % ID
same,"Prostate, biological half-life of A1",[2]; bi-exponential fit,0.67 h
same,"Prostate, biological half-life of A2",[2]; bi-exponential fit,5.58 h
same,"Prostate, fitted parameter A1",[2]; bi-exponential fit,0.02 % ID
same,"Prostate, fitted parameter A2",[2]; bi-exponential fit,0.02 % ID
same,"Renal cortex, biological half-life of A1",[2]; bi-exponential fit,1.1 h
same,"Renal cortex, biological half-life of A2",[2]; bi-exponential fit,about 19 h
same,"Renal cortex, fitted parameter A1",[2]; bi-exponential fit,4.23 % ID
same,"Renal cortex, fitted parameter A2",[2]; bi-exponential fit,2.16 % ID
same,"Salivary glands, biological half-life of A1",[2]; bi-exponential fit,1.56 h
same,"Salivary glands, biological half-life of A2",[2]; bi-exponential fit,4.47 h
same,"Salivary glands, fitted parameter A1",[2]; bi-exponential fit,0.30 % ID
same,"Salivary glands, fitted parameter A2",[2]; bi-exponential fit,0.08 % ID
same,"Small intestine, biological half-life of A1",[2]; bi-exponential fit,0.26 h
same,"Small intestine, biological half-life of A2",[2]; bi-exponential fit,10.17 h
same,"Small intestine, fitted parameter A1",[2]; bi-exponential fit,0.24 % ID
same,"Small intestine, fitted parameter A2",[2]; bi-exponential fit,0.10 % ID
same,"Spleen, biological half-life of A1",[2]; bi-exponential fit,1.49 h
same,"Spleen, biological half-life of A2",[2]; bi-exponential fit,18.74 h
same,"Spleen, fitted parameter A1",[2]; bi-exponential fit,0.12 % ID
same,"Spleen, fitted parameter A2",[2]; bi-exponential fit,0.04 % ID
same,"Stomach, biological half-life of A1",[2]; bi-exponential fit,0.46 h
same,"Stomach, biological half-life of A2",[2]; bi-exponential fit,6.14 h
same,"Stomach, fitted parameter A1",[2]; bi-exponential fit,0.15 % ID
same,"Stomach, fitted parameter A2",[2]; bi-exponential fit,0.09 % ID
same,"Kidneys, biological half-life of A2",[2]; [3],16.62 h
same,"Renal cortex, biological half-life of A2",[2]; [3],19.19 h
same,"WB retention, biological half-life of A1",[2]; [4],5.62 h
same,"WB retention, fitted parameter A1",[2]; [4],100.00 % ID
